Values quoted from earlier work, collected in patent US20150057617A1, “ANTI-MICROBIAL DRESSING, AN ANTI-MICROBIAL COMPOSITION AND USE THEREOF” (EMODIAL S.r.l., priority 2012, published 2015).

Test system: fibroblasts

For `[H]/N=C(\N/C(=N/[H])NCCCCCCNC(=N)NC(=N)Nc1ccc(Cl)cc1)Nc1ccc(Cl)cc1` [chlorhexidine], the cytotoxicity for fibroblasts is given as “cytotoxic for fibroblasts”.
